The text below walks through data of patent publication US4946954A, “Platinum pharmaceutical agents” (priority 1989, dated 1990).

Data set [1] concerns murine P388 leukemia. The experiment in a line: Example XXI: antileukemic activity against murine P388 leukemia, mean survival days and percentage increased life span. The data set is classed as in vivo. The settings on record: 10 mg/kg i.p. on day 1; 1×10^6 P388 cells i.p.; CD2F1 male mice; 5% ethanol, 95% sterile water. The method, then: The cyclohexane-1,2-diammine-platinum(II) salt of 2-(acetylamino)-3,4,6-tri-O-acetyl-2-deoxyglucopyranosyl-amino-thioxomethyl-imino diacetic acid and cisplatin were tested against murine P388 leukemia. The murine P388 leukemia system is known to be sensitive to cisplatin. The leukemia was maintained intraperitoneally in female DBA/2 mice.
Prior to administration, cisplatin was dissolved in ethanol. The solution was then adjusted to 5% ethanol, 95% sterile water The cyclohexane-1,2-diammine-platinum(II) salt of 2-(acetylamino)-3,4,6-tri-O-acetyl-2-deoxyglucopyranosylamino-thioxomethyl-imino diacetic acid was dissolved in sterile water at 4 degrees celsius immediately prior to administration.
Each compound was administered intraperitoneally to groups of CD2F1 male mice on day 1 after intraperitoneal implantation of 1×10^6 P388 leukemia cells. P388 antileukemic activity for each compound was assessed by mean survival days and percentage increased life span (% ILS).
% ILS is calculated as follows: […]
(§1) wherein T is the mean survival days of the treated mice and C is the mean survival days of the untreated mice.

Data set [2] deals with murine P388 leukemia. The experiment in a line: Example XXXVII: antileukemic activity against murine P388 leukemia, mean survival days and percentage increased life span. The data set is classed as in vivo. The settings on record: 10 mg/kg i.p. on day 1; 1×10^6 P388 cells i.p.; CD2F1 male mice; in sterile saline. The method, then:
The compound 2-[[[3,4,6-tri-O-acetyl-2-(N-acetylamino)-2-deoxy-alpha-D-glucopyranosyl]amino]thioxomethyl]amino]butane-dioato-O,O']-[1,2-cyclohexanediammine-N,N']platinum (II) and cisplatin were tested against murine P388 leukemia. The murine P388 leukemia system is known to be sensitive to cisplatin. The leukemia was maintained intraperitoneally in female DBA/2 mice.
Prior to administration, cisplatin was dissolved in sterile saline (0.85% sodium chloride). The compound 2-[[[3,4,6-tri-O-acetyl-2-(N-acetylamino)-2-deoxy-alpha-D-glucopyranosyl]amino]-thioxomethyl]amino]butanedioato-O,O']-[1,2-cyclohexanediammine-N,N']platinum (II) was dissolved in sterile water at 4° C. immediately prior to administration.
Each compound was administered intraperitoneally to groups of CD2F1 male mice on day 1 after intraperitoneal implantation of 1×10^6 P388 leukemia cells. P388 antileukemic activity for each compound was assessed by mean survival days and percentage increased life span (%ILS).
%ILS is calculated as follows: […]
as §1

For the next data set, the system named is male CD2F1 mice. In words: Example XXXIX: Deaths Due to Drug Toxicity. The data set is classed as in vivo. As to the method:
(§2) Murine Antitumor Activity
(§3) *P388 cells implanted intraperitoneally (i.p.) into male CD2F1 mice
(§4) on Day 0. Drugs (in 5% dextrose) administered i.p. on Day 1. Increase in
(§5) life span (% ILS) was calculated compared to a group of mice receiving
(§6) drug vehicle, with a mean survival of 8.5 days.
(§7) +compound was administered as a suspension.

Another data set deals with P388 cells. In words: Example XXXIX: Murine Antitumor Activity, P388 Antitumor Activity % ILS. It counts as in vivo, murine; male CD2F1 mice. Conditions: vehicle mean survival 8.5 days. The method, then: as §2, §3, §4, §5, §6, §7
Setting [3] is: 200 mg/kg single dose i.p. on Day 1, in 5% dextrose.
Where [4] appears, read: 150 mg/kg single dose i.p. on Day 1, in 5% dextrose.
Where [5] appears, read: 250 mg/kg single dose i.p. on Day 1, administered as a suspension.

On to `N.N.[Cl][Pt][Cl]` [cisplatin, cis-diammine-dichloroplatinum (II)], for which, in the data set with murine P388 leukemia [1], the “% ILS (percentage increased life span)” value came out at 83% and the “Mean Survival” value turned out to be 17.4 days. In the data set on murine P388 leukemia [2], the “% ILS (percentage increased life span)” value is reported as 96% and the “Mean Survival” value was determined as 15.7 days.
As for “Cis-R,R-(acetamidomalonato-O,O')(1,2-cyclohexanediamine-N,N')platinum (II) [AMP]”, the “Deaths Due to Drug Toxicity” value is on record as 1/10 in the data set on male CD2F1 mice (setting [3]) and 5/10 in the data set on male CD2F1 mice (250 mg/kg single dose i.p. on Day 1, in 5% dextrose). Moreover, the results for the “P388 Antitumor Activity: % ILS” value with P388 cells (setting [4]) and in the data set with P388 cells (setting [3]) were 115% and 93%, respectively.
With “Cis-R,R-(formamidomalonato-O,O')(1,2-cyclohexanediamine-N,N') platinum (II) [FMP]”, the “Deaths Due to Drug Toxicity” value with male CD2F1 mice (setting [5]) is 2/10. Moreover, the “P388 Antitumor Activity: % ILS” value came to 84% in the data set with P388 cells (150 mg/kg single dose i.p. on Day 1, administered as a suspension); 115% with P388 cells (200 mg/kg single dose i.p. on Day 1, administered as a suspension); 81% with P388 cells (setting [5]).
Regarding “cis-R,R-[2-[(pentalacetylgluconyl)imino]propanedioato-O,O'](1,2-cyclohexanediammine-N,N')platinum(II) [R,R-AG-AMP]”, in the data set on male CD2F1 mice (setting [4]), the “Deaths Due to Drug Toxicity” value is reported as 0/10. Moreover, in the data set on P388 cells (setting [4]), the “P388 Antitumor Activity: % ILS” value is 75%.
